pIC50: −log10 of the molar value.

One experiment relates to hPDE4B. The settings on record: read-out: IC50 against hPDE4B; reported; cited from earlier work.
Another experiment concerns the target hPDE4. As to the kind of experiment: hPDE4 enzyme inhibition. The experiment is classed as biochemical, human. The settings on record: read-out: IC50 against hPDE4.
The target in experiment [1] is T1, TbrPDEB1 (Trypanosoma brucei, UniProt Q8WQX9).
T1 sequence (Q8WQX9 1-930): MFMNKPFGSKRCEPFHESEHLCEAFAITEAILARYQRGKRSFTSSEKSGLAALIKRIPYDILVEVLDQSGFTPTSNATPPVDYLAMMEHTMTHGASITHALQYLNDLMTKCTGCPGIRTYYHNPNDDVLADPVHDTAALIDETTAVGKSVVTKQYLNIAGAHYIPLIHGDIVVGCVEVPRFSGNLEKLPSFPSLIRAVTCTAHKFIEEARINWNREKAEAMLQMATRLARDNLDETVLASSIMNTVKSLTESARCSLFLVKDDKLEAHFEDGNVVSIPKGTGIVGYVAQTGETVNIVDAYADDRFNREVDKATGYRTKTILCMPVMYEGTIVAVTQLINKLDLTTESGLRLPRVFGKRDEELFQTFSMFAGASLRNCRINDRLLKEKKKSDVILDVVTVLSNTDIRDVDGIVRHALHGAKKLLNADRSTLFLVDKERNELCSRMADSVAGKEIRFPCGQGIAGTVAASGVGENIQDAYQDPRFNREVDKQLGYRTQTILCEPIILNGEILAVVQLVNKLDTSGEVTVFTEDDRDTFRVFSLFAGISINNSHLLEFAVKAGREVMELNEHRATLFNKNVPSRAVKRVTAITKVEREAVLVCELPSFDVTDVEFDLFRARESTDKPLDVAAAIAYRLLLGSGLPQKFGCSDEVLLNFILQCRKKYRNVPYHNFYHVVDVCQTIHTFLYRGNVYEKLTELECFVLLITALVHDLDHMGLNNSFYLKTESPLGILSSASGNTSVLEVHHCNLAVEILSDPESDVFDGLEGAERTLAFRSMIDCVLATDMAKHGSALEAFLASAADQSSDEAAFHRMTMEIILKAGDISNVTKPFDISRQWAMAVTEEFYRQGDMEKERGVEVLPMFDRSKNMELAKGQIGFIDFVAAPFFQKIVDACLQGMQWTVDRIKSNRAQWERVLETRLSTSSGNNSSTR
Kind of experiment: TbrPDEB1 enzyme inhibition. As to conditions: for fold loss in potency (TbrPDEB1): relative to 12b (linker of four methylene groups). It counts as biochemical.

The target of experiment [2] is T1, TbrPDEB1. As to conditions: result in words; cited from earlier work.

As for `COc1ccc([C@]2(C#N)CC[C@@H](C(=O)O)CC2)cc1OC1CCCC1` [Compound 1, cilomilast], the pIC50 in the experiment with hPDE4B is 7.08. As for `COc1ccc([C@]2(C#N)CC[C@@H](C(=O)O)CC2)cc1OCc1ccccc1` [Compound 7], at hPDE4, the pIC50 was 6.27.

As to `COc1ccc([C@]2(C#N)CC[C@@H](C(=O)O)CC2)cc1OCCCCOc1ccccc1` [Compound 12b], the “times more active than 1 against TbrPDEB1” value on TbrPDEB1 [1] (ratio of TbrPDEB1 IC50 versus compound 1) is listed as 17 fold. Consider `O=C(Nc1c(Cl)cncc1Cl)c1ccc(OC(F)F)c(OCC2CC2)c1` [Compound 4, roflumilast], for which the TbrPDEB1 activity result at TbrPDEB1 [2] was “completely inactive”.

`COc1ccc([C@]2(C#N)CC[C@@H](C(=O)O)CC2)cc1OCCCCCOc1ccccc1` [Compound 12d]: the “fold loss in potency (TbrPDEB1)” value on TbrPDEB1 [1] is ~ 10 fold. On the same count and under the same terms, then `COc1ccc([C@]2(C#N)CC[C@@H](C(=O)O)CC2)cc1OCCCOc1ccccc1` [Compound 12c], with ~ 10 fold.

A word on the pIC50: it is the IC50 on a negative log10 scale, so that one unit is a factor of ten.

The values above are taken from paper PMC4155488 (Bioorganic & medicinal chemistry letters, 2014).
